One assay addresses T1, PD-1/PD-L1 protein/protein interaction (Homo sapiens, UniProt Q9NZQ7).
T1 construct: Recombinant human PD-L1 protein (19-238) with a His-tag at the C-terminus; purchased AcroBiosystems PD1-H5229 (PD-L1); PD1-H5257 (PD-1)
Nature of the assay: PD-1/PD-L1 homogenous time-resolved fluorescence (HTRF) binding assay.
Conditions: not given
The method, then: Resolved Fluorescence (HTRF) Binding Assay
The assays were conducted in a standard black 384-well polystyrene plate with a final volume of […]. Inhibitors were first serially diluted in DMSO and then added to the plate wells before the addition of other reaction components. The final concentration of DMSO in the assay was 1%. The assays were carried out at 25° C. in the PBS buffer (pH 7.4) with 0.05% Tween-20 and 0.1% BSA. […] Plates were centrifuged and proteins were preincubated with inhibitors for 40 min. The incubation was followed by the addition of 10 μL of HTRF detection buffer supplemented with Europium cryptate-labeled anti-human IgG (PerkinElmer-AD0212) specific for Fc and anti-His antibody conjugated to SureLight®—Allophycocyanin (APC, PerkinElmer-AD0059H). After centrifugation, the plate was incubated at 25° C. for 60 min. […] Final concentrations in the assay were […] PD1, 10 nM PD-L1, 1 nM europium anti-human IgG and 20 nM anti-His-Allophycocyanin. IC50 determination was performed by fitting the curve of percent control activity versus the log of the inhibitor concentration using the GraphPad Prism 5.0 software.
T1 sequence (Q9NZQ7 19-238): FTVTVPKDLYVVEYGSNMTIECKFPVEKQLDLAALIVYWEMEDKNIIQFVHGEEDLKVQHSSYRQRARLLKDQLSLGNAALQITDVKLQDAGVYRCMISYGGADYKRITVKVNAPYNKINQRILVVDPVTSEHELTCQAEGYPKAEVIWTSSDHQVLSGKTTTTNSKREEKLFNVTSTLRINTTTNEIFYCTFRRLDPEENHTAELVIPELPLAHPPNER
`Cc1c(Nc2nccc3cc(CN4CCCCC4C(=O)O)cnc23)cccc1-c1cccc(OCCCN2CCOCC2)c1C` (stereo not drawn) [Compound 5] had an IC50 of 3.3 nM. With `Cc1c(Nc2nccc3cc(CN(C)CC(=O)O)cnc23)cccc1-c1cccc(OCCCN2CCOCC2)c1C` [Compound 11, N-((8-((2,2′-dimethyl-3′-(3-morpholinopropoxy)-[1,1′-biphenyl]-3-yl)amino)-1,7-naphthyridin-3-yl)methyl)-N-methylglycine], the IC50 fell in the range of 2 to 10 nM. In turn, `Cc1c(Nc2nccc3cc(CN4CC(F)(F)CC4C(=O)O)cnc23)cccc1-c1cccc(OCCCN2CCOCC2)c1C` (stereo not drawn) [Compound 12, 1-((8-((2,2′-dimethyl-3′-(3-morpholinopropoxy)-[1,1′-biphenyl]-3-yl)amino)-1,7-naphthyridin-3-yl)methyl)-4,4-difluoropyrrolidine-2-carboxylic acid] yielded an IC50 of 10 to 150 nM. In turn, `Cc1c(Nc2nccc3cc(CNC(C)(CO)C(=O)O)cnc23)cccc1-c1cccc(OCCCN2CCOCC2)c1C` (stereo not drawn) [Compound 13, 2-(((8-((2,2′-dimethyl-3′-(3-morpholinopropoxy)-[1,1′-biphenyl]-3-yl)amino)-1,7-naphthyridin-3-yl)methyl)amino)-3-hydroxy-2-methylpropanoic acid] displayed a concentration for half-maximal inhibition (IC50) of under 2 nM. `CCN(CC(=O)O)Cc1cnc2c(Nc3cccc(-c4cccc(OCCCN5CCOCC5)c4C)c3C)nccc2c1` [Compound 14, N-((8-((2,2′-dimethyl-3′-(3-morpholinopropoxy)-[1,1′-biphenyl]-3-yl)amino)-1,7-naphthyridin-3-yl)methyl)-N-ethylglycine] showed an IC50 of under 2 nM. Same read-out and setting: for `Cc1c(Nc2nccc3cc(CN4CC(C(=O)O)C4)cnc23)cccc1-c1cccc(OCCCN2CCOCC2)c1C` [Compound 15, 1-((8-((2,2′-dimethyl-3′-(3-morpholinopropoxy)-[1,1′-biphenyl]-3-yl)amino)-1,7-naphthyridin-3-yl)methyl)azetidine-3-carboxylic acid] the value was under 2 nM; for `Cc1c(Nc2nccc3cc(CN4CCCCC4C(=O)O)cnc23)cccc1-c1cccc(OCCCN2CCCCC2)c1C` (stereo not drawn) [Compound 16, 1-((8-((2,2′-dimethyl-3′-(3-(piperidin-1-yl)propoxy)-[1,1′-biphenyl]-3-yl)amino)-1,7-naphthyridin-3-yl)methyl)piperidine-2-carboxylic acid], under 2 nM. Take `Cc1c(Nc2nccc3cc(CN4CCCCC4C(=O)O)cnc23)cccc1-c1cccc(OCCCN2CCN(C)CC2)c1C` (stereo not drawn) [Compound 17, 1-((8-((2,2′-dimethyl-3′-(3-(4-methylpiperazin-1-yl)propoxy)-[1,1′-biphenyl]-3-yl)amino)-1,7-naphthyridin-3-yl)methyl)piperidine-2-carboxylic acid]: the IC50 lay within 2 to 10 nM. As for `Cc1c(Nc2nccc3cc(CN4CCCCC4C(=O)O)cnc23)cccc1-c1cccc(OCCCN2CCCC2)c1C` (stereo not drawn) [Compound 18, 1-((8-((2,2′-dimethyl-3′-(3-(pyrrolidin-1-yl)propoxy)-[1,1′-biphenyl]-3-yl)amino)-1,7-naphthyridin-3-yl)methyl)piperidine-2-carboxylic acid], the IC50 was under 2 nM. The molecule `Cc1c(Nc2nccc3cc(CN4CCCCC4C(=O)O)cnc23)cccc1-c1cccc(OCCCN2CCC(O)C2)c1C` (stereo not drawn) [Compound 19, 1-((8-((3′-(3-(3-hydroxypyrrolidin-1-yl)propoxy)-2,2′-dimethyl-[1,1′-biphenyl]-3-yl)amino)-1,7-naphthyridin-3-yl)methyl)piperidine-2-carboxylic acid] registered an IC50 of under 2 nM.

In the case of `Cc1c(Nc2nccc3cc(CN4CCCCC4C(=O)O)cnc23)cccc1-c1cccc2c1CCN2CCCN1CCOCC1` (stereo not drawn) [Compound 20, 1-((8-((2-methyl-3-(1-(3-morpholinopropyl)indolin-4-yl)phenyl)amino)-1,7-naphthyridin-3-yl)methyl)piperidine-2-carboxylic acid], the IC50 is over 150 nM. The same measure, in the same setting: for `CCN(CC)CCCOc1cccc(-c2cccc(Nc3nccc4cc(CN5CCCCC5C(=O)O)cnc34)c2C)c1C` (stereo not drawn) [Compound 21, 1-((8-((3′-(3-(diethylamino)propoxy)-2,2′-dimethyl-[1,1′-biphenyl]-3-yl)amino)-1,7-naphthyridin-3-yl)methyl)piperidine-2-carboxylic acid] the value was under 2 nM.

Staying with this assay, now noted: HTRF, recombinant human PD-1 (Fc tag) / PD-L1 (His-tag), 25° C., PBS pH 7.4; read-out: IC50.
With `Cc1c(Nc2nccc3cc(CNCC(=O)O)cnc23)cccc1-c1cccc(OCCCN2CCOCC2)c1C` [Compound 1, ((8-((2,2′-dimethyl-3′-(3-morpholinopropoxy)-[1,1′-biphenyl]-3-yl)amino)-1,7-naphthyridin-3-yl)methyl)glycine], the IC50 was 0.43 nM. Same read-out and setting: with `Cc1c(Nc2nccc3cc(CNCC(=O)O)cnc23)cccc1-c1ccccc1` [Compound 2, ((8-((2-methyl-[1,1′-biphenyl]-3-yl)amino)-1,7-naphthyridin-3-yl)methyl)glycine] the figure was 3 nM; with `Cc1c(Nc2nccc3cc(CN4CCC[C@H]4C(=O)O)cnc23)cccc1-c1cccc(OCCCN2CCOCC2)c1C` [Compound 3, ((8-((2,2′-dimethyl-3′-(3-morpholinopropoxy)-[1,1′-biphenyl]-3-yl)amino)-1,7-naphthyridin-3-yl)methyl)proline], 2 nM; with `Cc1c(Nc2nccc3cc(CN4CCC[C@H]4C(=O)O)cnc23)cccc1-c1ccccc1` [Compound 4, ((8-((2-methyl-[1,1′-biphenyl]-3-yl)amino)-1,7-naphthyridin-3-yl)methyl)proline], 13 nM. Still for that read-out and setting: for `Cc1c(Nc2nccc3cc(CN4CC(O)CC4C(=O)O)cnc23)cccc1-c1cccc(OCCCN2CCOCC2)c1C` (stereo not drawn) [Compound 6, 1-((8-((2,2′-dimethyl-3′-(3-morpholinopropoxy)-[1,1′-biphenyl]-3-yl)amino)-1,7-naphthyridin-3-yl)methyl)-4-hydroxypyrrolidine-2-carboxylic acid] the value was 2.8 nM; for `Cc1c(Nc2nccc3cc(CNCCC(=O)O)cnc23)cccc1-c1cccc(OCCCN2CCOCC2)c1C` [Compound 7, 3-(((8-((2,2′-dimethyl-3′-(3-morpholinopropoxy)-[1,1′-biphenyl]-3-yl)amino)-1,7-naphthyridin-3-yl)methyl)amino)propanoic acid], 0.4 nM; for `Cc1c(Nc2nccc3cc(CNCCCC(=O)O)cnc23)cccc1-c1cccc(OCCCN2CCOCC2)c1C` [Compound 8, 4-(((8-((2,2′-dimethyl-3′-(3-morpholinopropoxy)-[1,1′-biphenyl]-3-yl)amino)-1,7-naphthyridin-3-yl)methyl)amino)butanoic acid], 0.9 nM. Same read-out and setting: with `Cc1c(Nc2nccc3cc(CN4CCC(C(=O)O)C4)cnc23)cccc1-c1cccc(OCCCN2CCOCC2)c1C` (stereo not drawn) [Compound 9, 1-((8-((2,2′-dimethyl-3′-(3-morpholinopropoxy)-[1,1′-biphenyl]-3-yl)amino)-1,7-naphthyridin-3-yl)methyl)pyrrolidine-3-carboxylic acid] the figure was 1.2 nM; with `Cc1c(Nc2nccc3cc(CN[C@@H](CO)C(=O)O)cnc23)cccc1-c1cccc(OCCCN2CCOCC2)c1C` [Compound 10, ((8-((2,2′-dimethyl-3′-(3-morpholinopropoxy)-[1,1′-biphenyl]-3-yl)amino)-1,7-naphthyridin-3-yl)methyl)serine], 0.5 nM.

The assay is the same for the next values; noted with them: R is the group comprising morpholine.
Take `Cc1c(Nc2nccc3cc(CNCC(=O)O)cnc23)cccc1-c1cccc(OCCCN2CCOCC2)c1C` [Compound 1, ((8-((2,2′-dimethyl-3′-(3-morpholinopropoxy)-[1,1′-biphenyl]-3-yl)amino)-1,7-naphthyridin-3-yl)methyl)glycine]: the “biological activity (potency), as shown in Table 1” value is reported as “much more potent”.

Regarding `Cc1c(Nc2nccc3cc(CN4CCC[C@H]4C(=O)O)cnc23)cccc1-c1cccc(OCCCN2CCOCC2)c1C` [Compound 3, ((8-((2,2′-dimethyl-3′-(3-morpholinopropoxy)-[1,1′-biphenyl]-3-yl)amino)-1,7-naphthyridin-3-yl)methyl)proline], the “biological activity (potency), as shown in Table 1” value is “much more potent”. Same read-out and setting: with `Cc1c(Nc2nccc3cc(CN4CCCCC4C(=O)O)cnc23)cccc1-c1cccc(OCCCN2CCOCC2)c1C` (stereo not drawn) [Compound 5] the entry was “much more potent”.

The record behind these values is patent US20210269440A1 (BETTA PHARMACEUTICALS CO., LTD, priority 2018, published 2021).
